What was measured:
[1] = system: B cell population (CD19+); assay: Whole blood loop assay: flow cytometry of B cells (count, CD69, CD107a); type: cell-based, human
From the text: (§1) Blood from healthy donors was taken in an open system and immediately mixed with test compounds (CD19-CAR T cells and dextran sulfate (Tikomed AB, Sweden, WO 2016/076780, referred to as IBsolvMIR in the figures). Autologous setting included CAR-T cells generated from the same donor that donated whole blood. In allogeneic setting, blood and CAR-T cells were not matched (from different donors). All materials in direct contact with whole blood were surface heparinized in accordance with the manufacturers protocol (Corline, Sweden). Whole blood (2 ml) was added to PVC-tubing, which, with a surface heparinized metal connector, formed a loop. The dextran sulfate (0.2 g/L) and CAR-T cells (0.5-5×10^6 cells) were added according to Table 1, and the loops were set to rotate on a wheel at 37° C. Blood aliquots were sampled, andeEthylenediaminetetraacetic acid (EDTA) was added to a final concentration of 10 mM to stop reactions at a given time-point. […]
(§2) The plasma samples were kept on ice, and plasma was collected by centrifugation at 2000×g at 4° C. for 20 minutes. […] Antibody master mix was incubated with whole blood for 30 min at 4° C., washed with PBS and analyzed using Cytoflex (Beckman Coulter).

CAR-T cell population = assay: Whole blood loop assay: flow cytometry of CAR-T cell population (CAR marker, CD69, CD107a, viability); type: cell-based, human
Procedure: Peripheral blood mononuclear cells (PBMCs) were isolated from healthy donors using Lymphoprep (Progen), stored in −70° C. in freezing medium (10% dimethyl sulfoxide (DMSO), 90% fetal calf serum (FCS)) and cultured in RPMI-1640 supplemented with 10% FCS and 1% penicillin/streptomycin. The PBMCs were activated with 1 μg/ml OKT-3 (Biolegend) and 200 IU/ml IL-2 (Roche) for 1 day to selectively stimulate T cells. Retronectin plates (Takara) were prepare in advance (7 μg per well, overnight at 4° C.) and incubated twice with 500 μl concentrated CD19-CAR-encoding retrovirus (2G) or Mock retrovirus, previously described in Karlsson et al., Evaluation of Intracellular Signaling Downstream Chimeric Antigen Receptors, PLOS ONE 2015, 10(12):e0144787, for 30 min at 37° C. Activated cells were transduced with 3 ml concentrated CD19-CAR-encoding retrovirus or Mock retorvirus for 2 days at 37° C. in the presence of retronectin-coated plates and 100 IU IL-2. Cells were cultured with 100 IU/ml IL-2 and expanded for 2 weeks before analysis. For analysis of CD19-CAR expression, cells were stained with 0.5 μl of anti-CAR-Dylight649 (Jackson ImmunoResearch), washed with phosphate-buffered saline (PBS) and followed by surface labeling (CD3, CD8, CD4, TF). Flow cytometry analysis was performed using Cytoflex (Beckman Coulter). Cell count and cell viability was determined using trypan blue (T-20 Counter, Bio-Rad).
as §1, §2

C3a = assay: Complement analysis (C3a) ELISA on plasma from whole blood loops; set-up: species or system human; conditions: data not shown
Procedure: The plasma samples were kept on ice, and plasma was collected by centrifugation at 2000×g at 4° C. for 20 minutes. The plasma was stored at −70° C. until the time of analysis. Complement analysis (C3a) was performed on plasma collected at various time points after assay start with ELISA kits from RayBiotech according to the manufacturers instructions. For experiments involving flow cytometry, blood samples were mixed with EDTA (final concentration of 10 mM), followed by the Fc block (BD Biosciences) and antibody master mix containing anti-human fluorochrome-labeled antibodies for surface staining (CD3, CD4, CD8, CD20, CD56, CD16, CD66b, CD14, BioLegend), including activation markers (CD107a, CD69, CD11b, Biolegend). Antibody master mix was incubated with whole blood for 30 min at 4° C., washed with PBS and analyzed using Cytoflex (Beckman Coulter).

whole blood = assay: Human whole blood loop assay: ACT kaolin time and prothrombin/INR time (i-STAT cartridges); conditions: for Activated clotting time (ACT) / Prothrombin time (PT) / international normalized ration (INR): dextran sulfate 0.2 mg/ml, no CAR-T cells
Procedure: The objective of this Example was to investigate dextran sulfate in a human whole blood loop assay in combination with CAR-T cells. Cellular activation and viability and blood status was assessed after incubation in the human whole loop system with dextran sulfate with and without CAR-T cells.
Blood from healthy donors was taken in an open system and immediately mixed with test compounds (CD19-CAR T cells and dextran sulfate (Tikomed AB, Sweden, WO 2016/076780, referred to as IBsolvMIR in the figures). Autologous setting included CAR-T cells generated from the same donor that donated whole blood. In allogeneic setting, blood and CAR-T cells were not matched (from different donors). All materials in direct contact with whole blood were surface heparinized in accordance with the manufacturers protocol (Corline, Sweden). Whole blood (2 ml) was added to PVC-tubing, which, with a surface heparinized metal connector, formed a loop. The dextran sulfate (0.2 g/L) and CAR-T cells (0.5-5×10^6 cells) were added according to Table 1, and the loops were set to rotate on a wheel at 37° C. Blood aliquots were sampled, andeEthylenediaminetetraacetic acid (EDTA) was added to a final concentration of 10 mM to stop reactions at a given time-point. The automated hematology analyzer XP-300 or XN-350 (Sysmex) was used to assess blood cell count at different time points, while i-STAT cartridges (Abbott) were used to measure ACT kaolin time and prothrombin/INR time measurements.

granulocyte population = assay: Whole blood loop assay: CD11b on granulocytes by flow cytometry; type: cell-based, human; conditions: addition of dextran sulfate to loops; FIG. 9B
From the text: as §1, §2

[2] = system: T cell population (CD3+, CD4+, CD8+ T cells); assay: Whole blood loop assay: flow cytometry of blood donor T cells (activation markers, viability); type: cell-based, human; conditions: groups with and without dextran sulfate; 60 min; FIGS. 3A to 3I
From the text: as §1, §2

monocyte population = assay: Whole blood loop assay: CD11b on monocytes by flow cytometry; type: cell-based, human; conditions: addition of dextran sulfate to loops; FIG. 9A
From the text: as §1, §2

[3] = allogenic donor, time point 60 min
[4] = autologous donor, time point 10 min
[5] = autologous donor, time point 60 min

dextran sulfate
impact on CAR functionality ([1]; from B cell count and activation pattern): did not have any negative impact | B cell count and activation pattern ([1]; samples with or without dextran sulfate): similar | percentage of cells positive for the CAR-T cell specific marker in the T cell population (CAR-T cell population; allogenic donor, FIG. 4A): increased | viability of the CAR-T cells (CAR-T cell population; autologous donor, without or with dextran sulfate, FIG. 5C): ~60% | proportion of CD3+ CAR-T cells and CD8+ CAR-T cells, autologous versus allogenic groups (CAR-T cell population; when dextran sulfate was added): more similar | levels of activation markers (CD69, CD107a) in the allogenic CAR-T cell groups (CAR-T cell population; with dextran sulfate, compared with autologous CAR-T cell groups, FIGS. 5A, 5B and 6): more similar to the levels of activation markers in the autologous CAR-T cell groups | C3a levels (C3a; in co-administration with CAR-T cells): decreased levels of C3a | C3a levels (C3a; substance added alone, both donors): decreased levels of C3a | coagulation measurements (ACT, PTT, INR) (whole blood; Table 2 and Table 3, autologous and allogenic donor): rise in all coagulation measurements | Activated clotting time (ACT) (whole blood; [3]): 356 s | Prothrombin time (PT) (whole blood; [3]): 30.7 s | international normalized ration (INR) (whole blood; [3]): 2.7 | Activated clotting time (ACT) (whole blood; [4]): 485 s | Prothrombin time (PT) (whole blood; [4]): 16.5 s | international normalized ration (INR) (whole blood; [4]): 1.4 | Prothrombin time (PT) (whole blood; [5]): 17.9 s | international normalized ration (INR) (whole blood; [5]): 1.5 | expression of activation marker CD11 b on granulocytes (granulocyte population): decreased | viability and activation of T cell population (blood donors CD3+, CD4+, CD8+ T cells) [2]: similar | expression of activation marker CD11 b on monocytes (monocyte population): decreased
